{"source": "paper PMC8795197", "about": "“Safety and activity of WX-0593 (Iruplinalkib) in patients with ALK- or ROS1-rearranged advanced non-small cell lung cancer: a phase 1 dose-escalation and dose-expansion trial” (Signal Transduction and Targeted Therapy, 2022)", "tested_on": "advanced NSCLC patients with ALK or ROS1 rearrangement", "test": "Phase 1 dose-expansion phase: antitumor activity (RECIST 1.1, investigators)", "type": "in vivo, human", "conditions": "for objective response rate / intracranial objective response rate: Total; for intracranial objective response rate: Baseline measurable CNS metastasis", "source_text": "Patients continued treatment until documented disease progression, unacceptable toxicity, withdrawal of consent, the start of a new anticancer treatment, death, loss of follow-up, or end of the study (whichever occurred first). Patients were permitted to continue treatment after progression if they were still experiencing clinical benefit, at the discretion of the investigator. Patients performed imaging evaluation at baseline, with computed tomography or magnetic resonance imaging of the chest, abdomen, pelvis, and brain. In the dose-escalation phase, the first efficacy evaluation was done after 3-week continuous administration of WX-0593 and every 6 weeks thereafter. […] AEs were assessed in all patients throughout this study and graded per the National Cancer Institute Common Terminology Criteria for Adverse Events version 4.03. In the dose-expansion phase, the primary endpoint was ORR assessed by investigators. Other key secondary endpoints included PFS, DCR, time to progression (TTP), DOR, intracranial response, and safety. Additionally, overall survival (OS) was assessed as a prespecified exploratory endpoint. ORR was defined as the proportion of patients who had best overall response, including CR or PR. PFS was calculated from the date of the first dose of WX-0593 to the date of documented disease progression or death (whichever occurred first). DCR was defined as the proportion of patients who had best overall response, including CR, PR, or SD, with a duration of at least 12 weeks. TTP was calculated from the date when the first dose of WX-0593 was given to first documented disease progression. […] OS was calculated from the date when the first dose of WX-0593 was administered to the date of death from any cause. Safety analysis was performed in the SS, which was comprised of all patients treated with one dose of WX-0593 and with safety data recorded. Efficacy analysis was performed in the FAS, which was defined as all patients treated with at least one dose of WX-0593. The PK analysis set included all patients treated with at least one dose of WX-0593 and with at least one evaluable PK sample. […] Descriptive statistics were carried out to summarize patients’ baseline characteristics and safety. […] All time-to-event data (PFS, TTP, DOR, and OS) and their corresponding 95% CIs were estimated by Kaplan–Meier methods. PK parameter analyses were done with Phoenix WinNonlin version 8.0. All other statistical analyses were conducted using SAS version 9.4.", "key": {"[1]": {"conditions": "ROS1-positive patients, 120 mg (n=3)"}, "[2]": {"conditions": "ROS1-positive patients, 180 mg (n=6)"}, "[3]": {"conditions": "ROS1-positive patients, total (n=9)"}, "[4]": {"conditions": "baseline measurable or non-measurable brain metastasis"}, "[5]": {"conditions": "baseline measurable or non-measurable brain metastasis (n = 58)"}, "[6]": {"conditions": "both crizotinib and other ALK TKIs"}, "[7]": {"conditions": "crizotinib as the only ALK TKI treatment"}}, "note": "Entries after “also recorded” stand apart in the source; their conditions may differ."}
{"smiles": "COc1cc(N2CCC3(CCN(C)CC3)CC2)ccc1Nc1ncc(Cl)c(Nc2ccccc2P(C)(C)=O)n1", "note": "[WX-0593]", "values": [{"measurement": "DOR, median (95% CI)", "setting": "ROS1-positive patients, 120 mg", "value": "NR (NR, NR)"}, {"measurement": "PFS, median (95% CI)", "setting": "ROS1-positive patients, 120 mg", "value": "2.76 (1.35, 2.76) mo"}, {"measurement": "TTP, median (95% CI)", "setting": "ROS1-positive patients, 120 mg", "value": "2.76 (1.35, 2.76) mo"}, {"measurement": "DCR (95% CI)", "setting": "[1]", "value": "66.7% (9.4%, 99.2%)"}, {"measurement": "ORR (95% CI)", "setting": "[1]", "value": "0 (0%, 70.8%)"}, {"measurement": "PFS, number of events (%)", "setting": "[1]", "value": "3 (100%)"}, {"measurement": "TTP (mo), n (%)", "setting": "[1]", "value": "3 (100%)"}, {"measurement": "DOR, median (95% CI)", "setting": "ROS1-positive patients, 180 mg", "value": "NR (NR, NR)"}, {"measurement": "PFS, median (95% CI)", "setting": "ROS1-positive patients, 180 mg", "value": "NR (1.35, NR)"}, {"measurement": "TTP, median (95% CI)", "setting": "ROS1-positive patients, 180 mg", "value": "NR (1.35, NR)"}, {"measurement": "DCR (95% CI)", "setting": "[2]", "value": "66.7% (22.3%, 95.7%)"}, {"measurement": "ORR (95% CI)", "setting": "[2]", "value": "66.7% (22.3%, 95.7%)"}, {"measurement": "PFS, number of events (%)", "setting": "[2]", "value": "2 (33.3%)"}, {"measurement": "TTP (mo), n (%)", "setting": "[2]", "value": "2 (33.3%)"}, {"measurement": "DOR, median (95% CI)", "setting": "ROS1-positive patients, total", "value": "NR (NR, NR)"}, {"measurement": "PFS, median (95% CI)", "setting": "ROS1-positive patients, total", "value": "2.76 (1.35, NR) mo"}, {"measurement": "TTP, median (95% CI)", "setting": "ROS1-positive patients, total", "value": "2.76 (1.35, NR) mo"}, {"measurement": "ORR (95% CI)", "setting": "[3]", "value": 44.4, "unit": "%"}, {"measurement": "PFS, number of events (%)", "setting": "[3]", "value": "5 (55.6%)"}, {"measurement": "TTP (mo), n (%)", "setting": "[3]", "value": "5 (55.6%)"}, {"measurement": "ORR", "setting": "ROS1-rearranged, crizotinib naive", "value": 80.0, "unit": "%"}, {"measurement": "median PFS", "setting": "ROS1 rearrangement, crizotinib-naive (n = 5)", "value": "not reached"}, {"measurement": "objective response rate", "setting": "ALK-rearranged patients", "value": "58.2% (53/91, 47.4-68.5%)"}, {"measurement": "objective response rate", "setting": "ALK-rearranged patients, ALK TKI naive", "value": "76.3% (29/38, 59.8-88.6%)"}, {"measurement": "objective response rate", "setting": "ALK-rearranged patients, ALK TKI naive, chemotherapy naïve", "value": "85.0% (17/20, 62.1-96.8%)"}, {"measurement": "objective response rate", "setting": "ALK-rearranged patients, ALK TKI naive, received chemotherapy before", "value": "66.7% (12/18, 41.0-86.7%)"}, {"measurement": "objective response rate", "setting": "ALK-rearranged patients, Crizotinib and other ALK TKIs", "value": "40.0% (2/5, 5.3-85.3%)"}, {"measurement": "objective response rate", "setting": "ALK-rearranged patients, Crizotinib only", "value": "45.7% (21/46, 30.9-61.0%)"}, {"measurement": "objective response rate", "setting": "ALK-rearranged patients, Other ALK TKIs", "value": "50.0% (1/2, 1.3-98.7%)"}, {"measurement": "objective response rate", "setting": "Baseline CNS metastasis", "value": "22.4% (13/58, 12.5-35.3%)"}, {"measurement": "objective response rate", "setting": "Baseline CNS metastasis, ALK TKI naive", "value": "25.0% (5/20, 8.7-49.1%)"}, {"measurement": "objective response rate", "setting": "Baseline CNS metastasis, Crizotinib only", "value": "21.2% (7/33, 9.0-38.9%)"}, {"measurement": "objective response rate", "setting": "Baseline CNS metastasis, Radiotherapy before", "value": "10.5% (2/19, 1.3-33.1%)"}, {"measurement": "objective response rate", "setting": "Baseline CNS metastasis, Radiotherapy naïve", "value": "28.2% (11/39, 15.0-44.9%)"}, {"measurement": "intracranial objective response rate", "value": "46.7% (7/15, 21.3-73.4%)"}, {"measurement": "intracranial objective response rate", "setting": "ALK TKI naive", "value": "50.0% (2/4, 6.8-93.2%)"}, {"measurement": "intracranial objective response rate", "setting": "Crizotinib only", "value": "50.0% (5/10, 18.7-81.3%)"}, {"measurement": "intracranial objective response rate", "setting": "Radiotherapy before", "value": "28.6% (2/7, 3.7-71.0%)"}, {"measurement": "objective response rate", "setting": "Prior ALK TKI treatment: Crizotinib and other ALK TKI", "value": "40.0% (2/5, 5.3-85.3%)"}, {"measurement": "objective response rate", "setting": "Prior ALK TKI treatment: Crizotinib only", "value": "42.0% (21/50, 28.2-56.8%)"}, {"measurement": "objective response rate", "setting": "ROS1-rearranged patients", "value": "44.4% (4/9, 13.7-78.8%)"}, {"measurement": "objective response rate", "setting": "ROS1-rearranged patients, Crizotinib naive", "value": "80.0% (4/5, 28.4-99.5%)"}, {"measurement": "objective response rate", "setting": "ROS1-rearranged patients, Received Crizotinib before", "value": "0 (0/4, 0-60.2%)"}, {"measurement": "objective response rate", "setting": "dose expansion phase, Prior ALK TKI treatment: ALK TKI naive", "value": "76.2% (32/42, 60.5-87.9%)"}, {"measurement": "DOR, median (95% CI)", "setting": "all patients, 120 mg", "value": "NR (5.52, NR)"}, {"measurement": "PFS, median (95% CI)", "setting": "all patients, 120 mg", "value": "NR (6.83, NR)"}, {"measurement": "TTP, median (95% CI)", "setting": "all patients, 120 mg", "value": "NR (6.87, NR)"}, {"measurement": "DCR (95% CI)", "setting": "all patients, 120 mg (n=50)", "value": "82.0% (68.6%, 91.4%)"}, {"measurement": "PFS, number of events (%)", "setting": "all patients, 120 mg (n=50)", "value": "15 (30.0%)"}, {"measurement": "DOR, median (95% CI)", "setting": "all patients, 180 mg", "value": "NR (5.49, NR)"}, {"measurement": "PFS, median (95% CI)", "setting": "all patients, 180 mg", "value": "NR (NR, NR)"}, {"measurement": "TTP, median (95% CI)", "setting": "all patients, 180 mg", "value": "NR (NR, NR)"}, {"measurement": "DCR (95% CI)", "setting": "all patients, 180 mg (n=49)", "value": "85.7% (72.8%, 94.1%)"}, {"measurement": "PFS, number of events (%)", "setting": "all patients, 180 mg (n=49)", "value": "10 (20.4%)"}, {"measurement": "DOR, median (95% CI)", "setting": "all patients, total", "value": "not reached (NR) (95% CI 5.52 months to NR); also recorded: NR (5.65, NR)"}, {"measurement": "PFS, median (95% CI)", "setting": "all patients, total", "value": "not reached (95% CI 6.93 months to NR); also recorded: NR (6.93, NR)"}, {"measurement": "TTP, median (95% CI)", "setting": "all patients, total", "value": "NR (6.93, NR)"}, {"measurement": "intracranial ORR", "setting": "baseline measurable CNS metastasis, radiotherapy before", "value": 28.6, "unit": "%"}, {"measurement": "intracranial ORR", "setting": "baseline measurable CNS metastasis, radiotherapy naive", "value": 62.5, "unit": "%"}, {"measurement": "intracranial ORR", "setting": "baseline measurable brain metastasis", "value": 46.7, "unit": "%"}, {"measurement": "intracranial ORR", "setting": "baseline measurable brain metastasis, ALK TKI naive", "value": 50, "unit": "%"}, {"measurement": "intracranial ORR", "setting": "baseline measurable brain metastasis, crizotinib before", "value": 50, "unit": "%"}, {"measurement": "intracranial ORR", "setting": "[4]", "value": 22.4, "unit": "%"}, {"measurement": "median PFS", "setting": "[4]", "value": "not reached (95% CI 6.90 months to NR)"}, {"measurement": "patients with intracranial PR", "setting": "[5]", "value": 7}, {"measurement": "patients with intracranial complete remission (CR)", "setting": "[5]", "value": 6}, {"measurement": "DCR", "setting": "[6]", "value": 100, "unit": "%"}, {"measurement": "ORR", "setting": "[6]", "value": 40.0, "unit": "%"}, {"measurement": "median PFS", "setting": "[6]", "value": "not reached"}, {"measurement": "DCR", "setting": "[7]", "value": 76.0, "unit": "%"}, {"measurement": "ORR", "setting": "[7]", "value": 42.0, "unit": "%"}, {"measurement": "median PFS", "setting": "previously only crizotinib", "value": 6.83, "unit": "months"}]}
